Where two headings read alike, the source gives them in different places.
Experiments:
Format in all cases: biochemical
TACE = molecular target: T1, TACE (Homo sapiens, UniProt P78536); experiment: TACE inhibition experiment (in vitro)
T1 construct: made in house; host or cells: mammalian cells or insect cells
Description: TACE inhibition experiments were conducted using TACE obtained as above as an enzyme and by measuring TACE activity in the presence or absence of a test substance using Nma (N-metylanthranilic acid)-[sequence]Dnp(dinitrophenyl)-D-Arg-NH2 being a fluorescent synthetic substrate which contains the sequence of cleavage site of membrane-bound TNF by TACE, as a substrate.
More specifically, 14 units of an enzyme solution (1 unit is defined as the amount of enzyme which degrades 1 pmol of the substrate per minute at 25° C.) which was prepared in 90 μL of assay buffer A (50 mM Tris-HCl buffer (pH 7.5) containing 200 mM sodium chloride, 5 mM calcium chloride, 10 μM zinc sulfate, 0.004% sodium azide and 2 mg/mL bovine serum albumin) and 90 μL of 20 μM fluorescent synthetic substrate prepared in assay buffer B (50 mM Tris-HCl buffer (pH 7.5) containing 200 mM sodium chloride, 5 mM calcium chloride, 10 μM zinc sulfate, 0.004% sodium azide and 0.05% PLURONIC F-68) are mixed and reacted for 2 hours at 37° C.

Human MMP1 = molecular target: T2, Human MMP1 (Homo sapiens, UniProt P03956); experiment: MMP1 inhibition experiment; details: read-out: IC50 value MMP-1
T2 construct: purchased Calbiochem 444208
T2 sequence (P03956 100-469): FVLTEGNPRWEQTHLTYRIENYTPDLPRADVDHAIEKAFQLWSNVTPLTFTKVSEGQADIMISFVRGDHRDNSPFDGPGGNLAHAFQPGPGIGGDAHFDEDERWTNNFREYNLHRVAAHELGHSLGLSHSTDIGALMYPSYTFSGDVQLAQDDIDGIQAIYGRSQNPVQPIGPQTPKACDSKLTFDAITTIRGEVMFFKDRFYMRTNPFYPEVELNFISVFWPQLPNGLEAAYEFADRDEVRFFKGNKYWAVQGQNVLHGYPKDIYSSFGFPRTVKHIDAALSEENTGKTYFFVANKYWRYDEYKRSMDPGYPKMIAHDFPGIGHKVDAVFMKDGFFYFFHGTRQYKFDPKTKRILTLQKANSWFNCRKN
Description: This enzyme solution in amount of 10 μL was diluted to 90 μL with the assay buffer A, which was added to 90 μL of 20 μM fluorescent substrate (Dnp-Pro-Cha(β-cyclohexylalanyl)-Gly-Cys(Me)-His-Ala-Lys(Nma)-NH2) prepared in the assay buffer B, followed by reaction for 5 hours at 37° C.

Human MMP3 = molecular target: T3, Human MMP3 (Homo sapiens, UniProt P08254); experiment: MMP3 inhibition experiment; details: concentration required for 50% inhibition of enzyme activity; read-out: IC50 value MMP-3
T3 construct: purchased Calbiochem 444217
T3 sequence (P08254 100-272 limits assumed): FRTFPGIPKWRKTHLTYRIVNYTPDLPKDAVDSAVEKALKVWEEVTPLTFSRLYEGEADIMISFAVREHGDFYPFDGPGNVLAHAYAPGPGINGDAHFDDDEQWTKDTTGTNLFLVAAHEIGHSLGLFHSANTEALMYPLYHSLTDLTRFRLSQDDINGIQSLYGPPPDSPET
Description: (§1) MMP inhibition experiment may be carried out using a fluorescent synthetic substrate according to, for example, the methods of Bickett et al. (D. Mark Bickett et al., Anal. Biochem., 1993, 212, 58-64) and Nagase et al. (H. Nagase et al., J. Biol. Chem., 1994, 269, 20952-20957). The methods of inhibition experiments carried out for various MMPs are described below.
Human MMP3 (Calbiochem #444217) in 90 μL (5 ng) prepared in the assay buffer A was added to 90 μL of 20 μM fluorescent substrate NFF-3(MOCAc-Arg-Pro-Lys-Pro-Val-Glu-Nva-Trp-Arg-Lys(Dnp)-NH2, Peptide Institute, Inc., #3168-v) prepared in the assay buffer B, followed by reaction for 5 hours at 37° C.

Human MMP9 = molecular target: T4, Human MMP9 (Homo sapiens, UniProt P14780); experiment: MMP9 inhibition experiment; details: read-out: IC50 value MMP-9
T4 construct: purchased Calbiochem 444231
T4 sequence (P14780 107-707 limits assumed): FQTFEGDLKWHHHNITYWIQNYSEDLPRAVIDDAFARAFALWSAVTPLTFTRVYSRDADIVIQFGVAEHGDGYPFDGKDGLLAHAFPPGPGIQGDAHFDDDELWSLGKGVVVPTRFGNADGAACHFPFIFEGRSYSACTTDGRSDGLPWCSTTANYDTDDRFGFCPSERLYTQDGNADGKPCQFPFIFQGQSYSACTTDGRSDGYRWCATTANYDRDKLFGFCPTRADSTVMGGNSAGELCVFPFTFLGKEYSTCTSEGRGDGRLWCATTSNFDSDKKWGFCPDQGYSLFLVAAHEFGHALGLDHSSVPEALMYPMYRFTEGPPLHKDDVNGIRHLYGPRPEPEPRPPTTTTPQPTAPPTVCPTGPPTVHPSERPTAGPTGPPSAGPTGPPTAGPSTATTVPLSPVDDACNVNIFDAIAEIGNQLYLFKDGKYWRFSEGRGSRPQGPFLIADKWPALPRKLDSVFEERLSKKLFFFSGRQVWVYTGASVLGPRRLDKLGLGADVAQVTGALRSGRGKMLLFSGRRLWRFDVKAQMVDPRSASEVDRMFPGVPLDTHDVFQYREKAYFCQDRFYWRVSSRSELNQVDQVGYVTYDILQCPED
Description: This enzyme solution in amount of 1 μL was diluted to 90 μL with the assay buffer A, which was added to 90 μL of 20 μM fluorescent substrate (Dnp-Pro-Cha-Gly-Cys(Me)-His-Ala-Lys(Nma)-NH2) prepared in the assay buffer B, followed by reaction for 4 hours at 37° C.

Human MMP13 = molecular target: T5, Human MMP13 (Homo sapiens, UniProt P45452); experiment: MMP13 inhibition experiment; details: concentration required for 50% inhibition of enzyme activity; read-out: IC50 value MMP-13
T5 construct: purchased Chemicon CC068
Description: Human MMP13 (Chemicon #CC068) in amount of 90 μL (200 ng) was activated by mixing with 10 μL of 10 mM APMA, followed by reaction for 1 hour at 37° C. This enzyme solution in amount of 0.6 μL was diluted to 90 μL with the assay buffer A, which was added to 90 μL of 20 μM fluorescent substrate (Dnp-Pro-Cha-Gly-Cys(Me)-His-Ala-Lys(Nma)-NH2) prepared in the assay buffer B, followed by reaction for 4 hours at 37° C.

Human MMP14 = molecular target: T6, Human MMP14 (Homo sapiens, UniProt P50281); experiment: MMP14 inhibition experiment; details: concentration required for 50% inhibition of enzyme activity; read-out: IC50 value MMP-14
T6 construct: purchased Biogenesis or Calbiochem 5980-1461 or 475935
Description: as §1
Human MMP14 (Biogenesis #5980-1461 or Calbiochem #475935) in amount of 90 μL (4 ng) prepared in the assay buffer A was added to 90 μL of 20 μM fluorescent substrate (Dnp-Pro-Cha-Gly-Cys(Me)-His-Ala-Lys(Nma)-NH2) prepared in the assay buffer B, followed by reaction for 5 hours at 37° C.

Human MMP17 = molecular target: T7, Human MMP17 (Homo sapiens, UniProt Q9ULZ9); experiment: MMP17 inhibition test; details: concentration required for 50% inhibition of enzyme activity; read-out: IC50 value MMP-17
T7 construct: purchased Calbiochem 475940
T7 sequence (Q9ULZ9 126-300 limits assumed): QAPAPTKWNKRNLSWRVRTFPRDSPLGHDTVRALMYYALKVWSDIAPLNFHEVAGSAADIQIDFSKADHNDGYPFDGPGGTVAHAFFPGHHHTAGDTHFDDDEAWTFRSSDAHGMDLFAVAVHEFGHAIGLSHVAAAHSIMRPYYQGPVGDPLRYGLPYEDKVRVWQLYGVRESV

[1] = concentration required for 50% inhibition of enzyme activity

T1 sequence (P78536 215-824): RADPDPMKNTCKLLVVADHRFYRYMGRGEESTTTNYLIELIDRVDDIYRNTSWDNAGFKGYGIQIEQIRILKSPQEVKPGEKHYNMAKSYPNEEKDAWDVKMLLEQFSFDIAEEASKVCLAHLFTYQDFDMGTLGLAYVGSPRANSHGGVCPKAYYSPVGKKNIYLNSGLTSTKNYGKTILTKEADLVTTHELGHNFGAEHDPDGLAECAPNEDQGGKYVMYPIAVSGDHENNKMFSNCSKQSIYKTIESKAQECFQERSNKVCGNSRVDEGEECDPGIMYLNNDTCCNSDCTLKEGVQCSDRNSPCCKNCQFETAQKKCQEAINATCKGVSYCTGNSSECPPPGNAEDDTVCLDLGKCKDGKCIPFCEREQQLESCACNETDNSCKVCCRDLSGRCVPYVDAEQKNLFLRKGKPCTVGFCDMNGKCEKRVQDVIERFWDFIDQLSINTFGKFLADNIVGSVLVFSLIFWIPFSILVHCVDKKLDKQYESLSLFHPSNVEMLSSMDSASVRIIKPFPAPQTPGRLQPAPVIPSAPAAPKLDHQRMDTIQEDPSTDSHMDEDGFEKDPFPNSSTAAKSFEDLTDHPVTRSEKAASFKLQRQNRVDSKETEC

`Cc1ccc2nc(C)cc(COc3ccc(S(=O)(=O)CC(c4ccc(C)nc4)N(O)C=O)cc3)c2c1` (centres unmarked) [Example I-147] gave an IC50 (TACE) of 4.3 nM.
`CCC(CC)C(=O)N1CCC(CC(CS(=O)(=O)c2ccc(OCc3cc(C)nc4ccc(C)cc34)cc2)N(O)C=O)CC1` (centres unmarked) [Example I-175] was tested, and the IC50 (TACE) was 11 nM.
In the case of `CCC(CC)C(=O)N1CC/C(=C\C(CS(=O)(=O)c2ccc(OCc3cc(C)nc4ccccc34)cc2)N(O)C=O)C(C)(C)C1` (centres unmarked) [Example I-141], the IC50 (TACE) is reported as 3.3 nM.
For `C=C1CCC(C(CS(=O)(=O)c2ccc(OCc3cc(C)cc(C)c3)cc2)N(O)C=O)CC1` (centres unmarked) [Example I-5, N-[2-{4-(3,5-Dimethylbenzyloxy)benzenesulfonyl}-1-(4-methylenecyclohexyl)ethyl]-N-hydroxyformamide], the IC50 (TACE) was 430 nM, the IC50 (Human MMP1) was 33 µM and the IC50 (Human MMP3) was 20 µM. For the same compound, the IC50 (Human MMP9) was 22 µM, the IC50 (Human MMP13) was 10 µM and the IC50 (Human MMP14) was 25 µM. For the same compound, the IC50 (Human MMP17) was 5000 nM.
Work on `Cc1cccc(C(CS(=O)(=O)c2ccc(OCc3cc(C)nc4ccccc34)cc2)N(O)C=O)n1` (centres unmarked) [Example I-135] yielded an IC50 (TACE) of 4 nM.
`O=CN(O)C(CC1CCC(=NO)CC1)CS(=O)(=O)c1ccc(OCc2ccc3ccccc3n2)cc1` (centres unmarked) [Example I-88] gave an IC50 (TACE) of 760 nM.
Compound `Cc1cc(COc2ccc(S(=O)(=O)CC(C=C3CCCN(S(C)(=O)=O)CC3)N(O)C=O)cc2)c2ccccc2n1` (centres unmarked) [Example I-138] has an IC50 (TACE) of 2.8 nM.
In the case of `C[C@@H]1O[C@@H](CO)CN(S(=O)(=O)c2ccc(OCc3ccc(F)cc3)cc2)[C@H]1C(=O)NO` [compound 2, reference compound], the IC50 (TACE; [1]) is reported as 5 nM, the IC50 (Human MMP1; [1]) is reported as 3 µM and the IC50 (Human MMP3) is reported as 0.04 µM. It also gave an IC50 (Human MMP9; [1]) of 0.02 µM, an IC50 (Human MMP13) of 0.004 µM and an IC50 (Human MMP14) of 0.1 µM. It also gave an IC50 (Human MMP17) of 21 nM.
`CCC(CC)CN1CCC(=CC(CS(=O)(=O)c2ccc(OCc3cc(C)nc4ccc(C)cc34)cc2)N(O)C=O)CC1` (centres unmarked) [Example I-174] was tested, and the IC50 (TACE) was 15 nM.
With `C=C1CCC(C(CS(=O)(=O)c2ccc(OCc3cc(C)cc(OC)c3)cc2)N(O)C=O)CC1` (centres unmarked) [Example I-7, N-Hydroxy-N-[2-{4-(3-methoxy-5-methylbenzyloxy)benzenesulfonyl)-1-(4-methylenecyclohexyl)ethyl]formamide] the IC50 (TACE) was 200 nM, the IC50 (Human MMP1) was 43 µM and the IC50 (Human MMP3) was 20 µM. For the same compound, the IC50 (Human MMP9) was 30 µM, the IC50 (Human MMP13) was 10 µM and the IC50 (Human MMP14) was 40 µM. It also gave an IC50 (Human MMP17) of 6000 nM.
`Cc1cc(COc2ccc(S(=O)(=O)CC(C3CCCN(CC(C)C)C3)N(O)C=O)cc2)c2ccccc2n1` (centres unmarked) [Example I-154] gave an IC50 (TACE) of 31 nM.
`C=C1CCC(C(CS(=O)(=O)c2ccc(OCc3cc(C)nc4ccccc34)cc2)N(O)C=O)CC1` (centres unmarked) [Example I-1, N-hydroxy-N-[1-(4-methylenecyclohexyl)-2-{4-(2-methylquinolin-4-ylmethoxy)benzenesulfonyl}ethyl]formamide] showed an IC50 (Human MMP1) of 50 µM, an IC50 (Human MMP3) of 6 µM and an IC50 (Human MMP13) of 7.3 µM. The IC50 (Human MMP14) was 40 µM and the IC50 (Human MMP17) was 2000 nM.
With `Cc1cc(COc2ccc(S(=O)(=O)CC(C=C3CCC(=O)CC3)N(O)C=O)cc2)c2ccccc2n1` (centres unmarked) [Example I-3, N-Hydroxy-N-[2-{4-(2-methylquinolin-4-ylmethoxy)benzenesulfonyl}-1-(4-oxocyclohexylidenemethyl)ethyl]formamide] the IC50 (TACE; [1]) was 3.5 nM, the IC50 (Human MMP1) was over 100 µM and the IC50 (Human MMP3) was 6.3 µM. For the same compound, the IC50 (Human MMP9; [1]) was 50 µM, the IC50 (Human MMP13) was 22 µM and the IC50 (Human MMP14) was 43 µM. The IC50 (Human MMP17) was 2500 nM.
Work on `Cc1cc(COc2ccc(S(=O)(=O)CC(/C=C3\CCN(CC(C)C)CC3(C)C)N(O)C=O)cc2)c2ccccc2n1` (centres unmarked) [Example I-142] yielded an IC50 (TACE) of 18 nM.
`CCN1CCCC(C(CS(=O)(=O)c2ccc(OCc3cc(C)nc4ccccc34)cc2)N(O)C=O)C1` (centres unmarked) [Example I-153] was tested, and the IC50 (TACE) was 33 nM.
Compound `COCc1cc(COc2ccc(S(=O)(=O)CC(CC3CCC4(CC3)OCCO4)N(O)C=O)cc2)cc(C)n1` (centres unmarked) [Example I-121] has an IC50 (TACE) of 360 nM.
In the case of `Cc1cc(COc2ccc(S(=O)(=O)CC(CC3=CCN(C(=O)OC(C)(C)C)CC3(C)C)N(O)C=O)cc2)c2ccccc2n1` (centres unmarked) [Example I-152], the IC50 (TACE) is reported as 13 nM.
Compound `CCN1CCCC(CC(CS(=O)(=O)c2ccc(OCc3cc(C)nc4ccccc34)cc2)N(O)C=O)C1` (centres unmarked) [Example I-158] has an IC50 (TACE) of 26 nM.
`Cc1cc(COc2ccc(S(=O)(=O)CC(/C=C/C3(C)CCOCC3)N(O)C=O)cc2)c2ccccc2n1` (centres unmarked) [Example I-143] was tested, and the IC50 (TACE) was 3.3 nM.
Work on `CCC(CC)C(=O)N1CCCC(=CC(CS(=O)(=O)c2ccc(OCc3cc(C)nc4ccccc34)cc2)N(O)C=O)CC1` (centres unmarked) [Example I-139] yielded an IC50 (TACE) of 8.2 nM.
For `Cc1cc(COc2ccc(S(=O)(=O)CC(N(O)C=O)C3(C)CCN(C(=O)OC(C)(C)C)CC3)cc2)c2ccccc2n1` (centres unmarked) [Example I-161], the IC50 (TACE) was 44 nM.
`CCN1CCC(C(CS(=O)(=O)c2ccc(OCc3cc(C)nc4ccccc34)cc2)N(O)C=O)CC1` (centres unmarked) [Example I-156] was tested, and the IC50 (TACE) was 33 nM.
For `Cc1cc(COc2ccc(S(=O)(=O)CC(CCC3=CCCC(O)C3)N(O)C=O)cc2)c2ccccc2n1` (centres unmarked) [Example I-146], the IC50 (TACE) was 9.4 nM.
`Cc1cc(COc2ccc(S(=O)(=O)CC(CCC3(C)CCOCC3)N(O)C=O)cc2)c2ccccc2n1` (centres unmarked) [Example I-144] gave an IC50 (TACE) of 7.2 nM.
With `Cc1cc(COc2ccc(S(=O)(=O)CC(C=C3CCC(=NO)CC3)N(O)C=O)cc2)c2ccccc2n1` (centres unmarked) [Example I-6, N-Hydroxy-N-[1-(4-hydroxyiminocyclohexylidenemethyl)-2-{4-(2-methylquinolin-4-ylmethoxy)benzenesulfonyl}ethyl]formamide] the IC50 (Human MMP1) was 80 µM, the IC50 (Human MMP3) was 5 µM and the IC50 (Human MMP9) was 45 µM. It also gave an IC50 (Human MMP13) of 15 µM, an IC50 (Human MMP14) of 50 µM and an IC50 (Human MMP17) of 3000 nM.
`COCc1cc(COc2ccc(S(=O)(=O)CC(CC3CCC(=O)CC3)N(O)C=O)cc2)cc(C)n1` (centres unmarked) [Example I-123] was tested, and the IC50 (TACE) was 290 nM.
In the case of `O=CN(O)C(CC1CCC2(CC1)OCCO2)CS(=O)(=O)c1ccc(OCc2ccc3ccccc3n2)cc1` (centres unmarked) [Example I-87], the IC50 (TACE) is reported as 5700 nM.
In the case of `COc1ccc(CCC(CS(=O)(=O)c2ccc(OCc3cc(C)nc4ccccc34)cc2)N(O)C=O)c(C)c1C` (centres unmarked) [Example I-145], the IC50 (TACE) is reported as 210 nM.
For `Cc1cc(COc2ccc(S(=O)(=O)CC(CCc3ccccc3C)N(O)C=O)cc2)c2ccccc2n1` (centres unmarked) [Example I-40], the IC50 (TACE) was 270 nM.
In the case of `Cc1cc(COc2ccc(S(=O)(=O)CC(C=C3CCCN(CC(C)C)CC3)N(O)C=O)cc2)c2ccccc2n1` (centres unmarked) [Example I-140], the IC50 (TACE) is reported as 8.2 nM.
In the case of `Cc1cc(COc2ccc(S(=O)(=O)CC(C3CCC(=NO)CC3)N(O)C=O)cc2)c2ccccc2n1` (centres unmarked) [Example I-14], the IC50 (Human MMP1) is reported as 30 µM and the IC50 (Human MMP14) is reported as 23 µM.
`Cc1cc(C)cc(COc2ccc(S(=O)(=O)CC(CC3CCC4(CC3)OCCO4)N(O)C=O)cc2)c1` (centres unmarked) [Example I-90] showed an IC50 (TACE) of 2100 nM.
For `Cc1cc(COc2ccc(S(=O)(=O)CC(CC3CCCN(C(=O)OC(C)(C)C)C3)N(O)C=O)cc2)c2ccccc2n1` (centres unmarked) [Example I-157], the IC50 (TACE) was 13 nM.
With `CCC(CC)C(=O)N1CCC(=CC(CS(=O)(=O)c2ccc(OCc3cc(C)nc4ccc(C)cc34)cc2)N(O)C=O)CC1` (centres unmarked) [Example I-173] the IC50 (TACE) was 5 nM.
`O=CN(O)C(CC1CCC(=O)CC1)CS(=O)(=O)c1ccc(OCc2ccc3ccccc3n2)cc1` (centres unmarked) [Example I-89] gave an IC50 (TACE) of 820 nM.
`Cc1ccc2nc(C)cc(COc3ccc(S(=O)(=O)CC([C@@H]4CSC(=O)N4C)N(O)C=O)cc3)c2c1` (some centres unmarked) [Example I-148] was tested, and the IC50 (TACE) was 13 nM.
`CCC(CC)CN1CCCC(C(CS(=O)(=O)c2ccc(OCc3cc(C)nc4ccccc34)cc2)N(O)C=O)C1` (centres unmarked) [Example I-160] showed an IC50 (TACE) of 50 nM.

Source: patent publication US7511144B2, “Reverse hydroxamic acid derivatives” (Kaken Pharmaceutical Co., Ltd., priority 2001, dated 2009)
